Data on twelve molecules can be found in ChEMBL document CHEMBL5233262, “Anti-inflammatory activity of naturally occuring diarylheptanoids - A review” (Bioorg Med Chem, 2021).

≈ marks a conversion by molar mass, not a printed value.

For series [1], the system named is RAW264.7. In words: Antiinflammatory activity in mouse RAW264.7 cells assessed as inhibition of LPS-induced TNFalpha production at 10 uM preincubated for 2 hrs followed by LPS stimulation and measured after 24 hrs by ELISA. As to conditions: time 26 hrs. It is filed as functional.
Series [2] has as its system RAW264.7. Description: Antiinflammatory activity in mouse RAW264.7 cells assessed as inhibition of LPS-induced TNFalpha production at 3 uM preincubated for 2 hrs followed by LPS stimulation and measured after 24 hrs by ELISA. To be noted: time 26 hrs. The format is functional.
Series [3] deals with RAW264.7. In words: Antiinflammatory activity in mouse RAW264.7 cells assessed as inhibition of LPS-induced NO production at 100 uM preincubated for 2 hrs followed by LPS stimulation and measured after 24 hrs by Griess method. The format is functional. As to conditions: time 26 hrs.
For series [4], the system named is RAW264.7. In words: Antiinflammatory activity in mouse RAW264.7 cells assessed as inhibition of LPS-induced NO production at 3 uM preincubated for 2 hrs followed by LPS stimulation and measured after 24 hrs by Griess method. It is filed as functional. To be noted: time 26 hrs.
In series [5] the test system is RAW264.7. In words: Antiinflammatory activity in mouse RAW264.7 cells assessed as inhibition of LPS-induced NO production at 30 uM preincubated for 2 hrs followed by LPS stimulation and measured after 24 hrs by Griess method. The format is functional. As to conditions: time 26 hrs.
The test system of series [6] is RAW264.7. In words: Antiinflammatory activity in mouse RAW264.7 cells assessed as inhibition of LPS-induced IL-6 production at 3 uM preincubated for 2 hrs followed by LPS stimulation and measured after 24 hrs by ELISA. It is filed as functional. As to conditions: time 26 hrs.
Series [7] concerns RAW264.7. Description: Antiinflammatory activity in mouse RAW264.7 cells assessed as inhibition of LPS-induced NO production at 10 uM preincubated for 2 hrs followed by LPS stimulation and measured after 24 hrs by Griess method. The format is functional. To be noted: time 26 hrs.
The test system of series [8] is RAW264.7. Description: Antiinflammatory activity in mouse RAW264.7 cells assessed as inhibition of LPS-induced TNFalpha production at 30 uM preincubated for 2 hrs followed by LPS stimulation and measured after 24 hrs by ELISA. The format is functional. To be noted: time 26 hrs.
Series [9] concerns RAW264.7. In words: Antiinflammatory activity in mouse RAW264.7 cells assessed as inhibition of LPS-induced IL-6 production at 30 uM preincubated for 2 hrs followed by LPS stimulation and measured after 24 hrs by ELISA. As to conditions: time 26 hrs. It is filed as functional.
In series [10] the test system is RAW264.7. Description: Antiinflammatory activity in mouse RAW264.7 cells assessed as inhibition of LPS-induced TNFalpha production at 100 uM preincubated for 2 hrs followed by LPS stimulation and measured after 24 hrs by ELISA. The format is functional. To be noted: time 26 hrs.
For series [11], the system named is RAW264.7. In words: Antiinflammatory activity in mouse RAW264.7 cells assessed as inhibition of LPS-induced IL-6 production at 10 uM preincubated for 2 hrs followed by LPS stimulation and measured after 24 hrs by ELISA. The format is functional. To be noted: time 26 hrs.
Series [12] has as its system RAW264.7. Description: Antiinflammatory activity in mouse RAW264.7 cells assessed as inhibition of LPS-induced IL-6 production at 100 uM preincubated for 2 hrs followed by LPS stimulation and measured after 24 hrs by ELISA. The format is functional. To be noted: time 26 hrs.
The subject of the next series is Zingiber officinale. In words: Inhibition of prostaglandin biosynthesis in ginger. The format is functional, organism-based.
In series [13] the test system is RAW264.7. Description: Antiinflammatory activity in mouse RAW264.7 cells assessed as inhibition of LPS-induced NO production for 24 hrs by Griess assay. It is filed as functional, cell-based. To be noted: RAW264.7, 24 h.
In series [14] the test system is RAW264.7. In words: Antiinflammatory activity in mouse RAW264.7 cells assessed as inhibition of LPS-induced NO production. The format is functional, cell-based.
Series [15] relates to Mus musculus. In words: Antiinflammatory activity in TPA-induced ear edema ICR mouse model assessed as inhibition of ear inflammation at 1 ug, TOP for 30 mins followed by TPA addition and measured after 6 hrs. It is filed as functional. To be noted: dose 1 µg, time 390 min, 6.5 h.
The test system of series [16] is RAW264.7. Description: Antiinflammatory activity against mouse RAW264.7 cells assessed as inhibition of IFN-gamma and LPS-induced COX2 production preincubated for 2 hrs followed by IFN-gamma and LPS stimulation and measured after 16 hrs by spectrophotometric analysis. The format is functional, cell-based.
For a further series, the system named is Rattus norvegicus. In words: Antiinflammatory activity in rat model of carrageenan-induced paw edema assessed as reduction in paw thickness at 10 mg/kg,ip and measured after 4 hrs. The format is functional. Also noted: scale not given: the % may be the effect or the level left.
In series [17] the test system is Mus musculus. Description: Antiinflammatory activity in ICR mouse model of TPA-induced ear edema assessed as inhibition of ear inflammation at 1 mg,TOP for 30 mins followed by TPA addition and measured after 6 hrs. The format is functional. To be noted: time 390 min, 6.5 h.
Series [18] deals with J774.1. Description: Cytotoxicity in mouse J774.1 cells assessed as reduction in cell viability at 100 microg/ml. The format is toxicity, cell-based. To be noted: at 100 µg/mL.
Series [19] relates to J774.1. In words: Antiinflammatory activity in mouse J774.1 cells assessed as inhibition of LPS-induced NO production incubated for 48 hrs by Griess reagent based analysis. The format is functional, cell-based. To be noted: Mus musculus, J774.1, 48 h.
The test system of series [20] is J774.1. Description: Antiinflammatory activity in mouse J774.1 cells assessed as inhibition of LPS-induced NO production at 100 microg/ml. The format is functional.
Series [21] in a line: Inhibition of COX in bovine seminal vesicle assessed as reduction in PGE2 production using arachidonic acid as substrate. The format is tissue-based, Bos taurus.
The test system of the next series is BV-2. Description: Antiinflammatory activity in mouse BV-2 cells assessed as inhibition of LPS-induced NO production at 10 uM preincubated for 1 hrs followed by LPS stimulation and measured after 24 hrs by Griess assay. The format is functional. As to conditions: time 25 hrs.
A short description of series [22]: Antioxidant activity assessed as nitroblue tetrazolium superoxide radical scavenging activity by spectrophotometric analysis. It is filed as functional.
A short description of series [23]: Antioxidant activity assessed as nitroblue tetrazolium superoxide radical scavenging activity incubated for 10 mins by spectrophotometric analysis. It is filed as functional.
For series [24], the system named is RAW264.7. In words: Antiinflammatory activity in mouse RAW264.7 cells assessed as inhibition of LPS-induced NO production preincubated for 0.5 hrs followed by LPS stimulation and measured after 24 hrs by Griess reagent based analysis. It is filed as functional, cell-based.
The nature of series [25]: Cytotoxicity against mouse RAW264.7 cells assessed as reduction in cell viability by MTT assay. The format is toxicity, cell-based.
Series [26] deals with RAW264.7. Description: Antiinflammatory activity in mouse RAW264.7 cells assessed as inhibition of LPS-induced NO production at 30 uM preincubated for 0.5 hrs followed by LPS stimulation and measured after 24 hrs by Griess reagent based analysis. The format is functional. As to conditions: time 24.5 hrs.

Take `COc1cc(CC[C@@H](C[C@H](O)[C@@H](O)Cc2ccc(O)cc2)O[C@@H]2OC[C@@H](O)[C@H](O)[C@H]2O)ccc1O`: the inhibition at 10 µM with RAW264.7 [1] worked out at 36%; in the series with RAW264.7 [7] it was 39%; in the series on RAW264.7 [11], 43%. Further, the inhibition at 3 µM in the series with RAW264.7 [2] worked out at 36%; with RAW264.7 [4] it was 39%; with RAW264.7 [6] it was 43%. The inhibition at 100 µM with RAW264.7 [3] is 39%; in the series on RAW264.7 [10] it was 36%; in the series on RAW264.7 [12], 43%. Besides, the inhibition at 30 µM in the series on RAW264.7 [5] came to 39%; in the series on RAW264.7 [8], 36%; in the series on RAW264.7 [9], 43%.

Regarding `COc1ccc2c(c1)c(CC(=O)O)c(C)n2C(=O)c1ccc(Cl)cc1` [INDOMETHACIN], the IC50 turned out to be 4.9 µM in the series on Zingiber officinale, 32.3 µM with RAW264.7 [13], 26.3 µM with RAW264.7 [14] and 26.2 µg/mL (≈ 73.2 µM) with RAW264.7 [16]. For the same molecule, the ID50 in the series on Mus musculus [15] stood at 0.9 µmol; in the series on Mus musculus [17], 0.3 mg. Further, the Activity in the series with Rattus norvegicus came out at 55.2%.

`COc1cc(O)c([C@H](/C=C/C[C@@H](O)CCc2ccc(O)cc2)c2ccc(O)cc2)c(O)c1C(=O)/C=C/c1ccc(O)cc1`: the Activity with J774.1 [18] is reported as 85%. In the series on J774.1 [19], the IC50 was 84 µM. Moreover, in the series with J774.1 [20], the inhibition at 100 µg/mL was found to be 90%.

In the case of `COc1cc([C@H]2C[C@H](O)C[C@@H]([C@@H](O)Cc3ccc(O)cc3)O2)ccc1O`, the inhibition at 10 µM is 41% with RAW264.7 [1], 34% in the series with RAW264.7 [7] and 40% in the series on RAW264.7 [11]. The inhibition at 3 µM in the series with RAW264.7 [2] was determined as 41%; with RAW264.7 [4] it was 34%; with RAW264.7 [6] it was 40%. In addition, the inhibition at 100 µM in the series on RAW264.7 [3] was 34%; in the series with RAW264.7 [10], 41%; in the series on RAW264.7 [12], 40%. The inhibition at 30 µM in the series on RAW264.7 [5] was determined as 34%; in the series on RAW264.7 [8], 41%; with RAW264.7 [9], 40%.

With `NC1=NN(c2cccc(C(F)(F)F)c2)CC1` [BW-755C], the IC50 in [21] worked out at 32 µM.

For `COc1cc(O)c([C@@H](/C=C/C[C@@H](O)CCc2ccc(O)cc2)c2ccc(O)cc2)c(O)c1C(=O)/C=C/c1ccc(O)cc1`, in the series on J774.1 [18], the Activity is recorded as 85%. For the same molecule, in the series on J774.1 [19], the IC50 was 39 µM. Further, in the series on J774.1 [20], the inhibition at 100 µg/mL came out at 90%.

With `Oc1ccc(CC[C@@H](O)C[C@@H](O)CCc2ccc(O)cc2)cc1`, in the series with BV-2, the inhibition at 10 µM was 65.2%.

Turning to `O=C1CCN(c2ccccc2)N1` [PHENIDONE], in series [21], the IC50 was 11.8 µM.

`Oc1ncnc2[nH]ncc12` [ALLOPURINOL]: the IC50 is 8 µM in series [22] and 3.9 µM in series [23].

With `O=C(/C=C/c1ccc(O)c(O)c1)CC/C=C/c1ccc(O)c(O)c1`, the IC50 in the series on RAW264.7 [24] is 2.9 µM; in series [25], 9 µM.

As for `OC[C@H]1O[C@@H](O[C@H](CCCCc2ccc(O)c(O)c2)CCc2ccc(O)cc2)[C@H](O)[C@@H](O)[C@@H]1O`, the inhibition at 30 µM with RAW264.7 [26] was 11%.

Turning to `Oc1ccc(CC[C@@H](O)C[C@H](O)CCc2ccc(O)cc2)cc1` [(+)-HANNOKINOL], the inhibition at 10 µM in the series on BV-2 is 51.3%.
